From ChEMBL document CHEMBL4431297 (Medchemcomm, 2016)
The source made the active and inactive calls. The rule behind the calls is not given here.

Tests used:
Type in all cases: protein-complex assay
[1] = test system: DNA gyrase (Escherichia coli), P0AES6+P0AES4 [UNDEFINED MUTATION]; experiment: (§1) Inhibition of Escherichia coli JMtacA/JMtacB DNA gyrase subunit A2B2 S83W mutant using relaxed pBR322 DNA as substrate incubated for 30 mins in presence of ATP by ethidium bromide staining based agarose gel electrophoresis
[2] = molecular target: T1, DNA gyrase (Escherichia coli) (UniProt P0AES6+P0AES4); experiment: Inhibition of wild type Escherichia coli DNA gyrase subunit A2B2 at 100 uM using relaxed pBR322 DNA as substrate incubated for 30 mins in presence of ATP by ethidium bromide staining based agarose gel electrophoresis
[3] = test system: DNA gyrase (Escherichia coli), P0AES6+P0AES4 [UNDEFINED MUTATION]; experiment: Inhibition of Escherichia coli JMtacA/JMtacB DNA gyrase subunit A2B2 S83W mutant at 100 uM using relaxed pBR322 DNA as substrate incubated for 30 mins in presence of ATP by ethidium bromide staining based agarose gel electrophoresis
[4] = molecular target: T1, DNA gyrase (Escherichia coli); experiment: (§2) Inhibition of wild type Escherichia coli DNA gyrase subunit A2B2 using supercoiled pBR322 DNA as substrate assessed as stabilization of enzyme-DNA cleavage complex by measuring linear DNA bands at 100 uM incubated for 30 mins in presence of proteinase K/SDS and in absence of ATP by ethidium bromide staining based agarose gel electrophoresis
[5] = molecular target: T1, DNA gyrase (Escherichia coli); experiment: as §2, with “1” for “100”
DNA gyrase [6] = molecular target: DNA gyrase (Escherichia coli, UniProt P0AES4+P0AES6, S83W); experiment: as §1
[7] = molecular target: T1, DNA gyrase (Escherichia coli); experiment: as §2, with “bands at 10 to 100 uM” for “bands at 100 uM”
[8] = test system: DNA gyrase (Escherichia coli), P0AES6+P0AES4 [UNDEFINED MUTATION]; experiment: Inhibition of Escherichia coli JMtacA/JMtacB DNA gyrase subunit A2B2 S83W mutant at 25 uM using relaxed pBR322 DNA as substrate incubated for 30 mins in presence of ATP by ethidium bromide staining based agarose gel electrophoresis
[9] = molecular target: T1, DNA gyrase (Escherichia coli); experiment: as §2, with “bands at 50 to 100 uM” for “bands at 100 uM”
[10] = test system: DNA gyrase (Escherichia coli), P0AES6+P0AES4 [UNDEFINED MUTATION]; experiment: Inhibition of Escherichia coli JMtacA/JMtacB DNA gyrase subunit A2B2 S83W mutant at 50 to 300 uM using relaxed pBR322 DNA as substrate incubated for 30 mins in presence of ATP by ethidium bromide staining based agarose gel electrophoresis
DNA gyrase [11] = molecular target: DNA gyrase (Escherichia coli, UniProt P0AES4+P0AES6); experiment: Inhibition of wild type Escherichia coli DNA gyrase subunit A2B2 using relaxed pBR322 DNA as substrate incubated for 30 mins in presence of ATP by ethidium bromide staining based agarose gel electrophoresis
[12] = test system: DNA gyrase (Escherichia coli), P0AES6+P0AES4 [UNDEFINED MUTATION]; experiment: Inhibition of Escherichia coli JMtacA/JMtacB DNA gyrase subunit A2B2 S83W mutant at 50 uM using relaxed pBR322 DNA as substrate incubated for 30 mins in presence of ATP by ethidium bromide staining based agarose gel electrophoresis

## CCOC(=O)c1cn(C2CC2)c2cc(N3CCN(C(=O)CCCCCCCCC(=O)Nc4ccccc4)CC3)c(F)cc2c1=O
[1]
  inhibition: inactive
[2]
  inhibition: inactive

## O=C(CCCCCCCCC(=O)N1CCN(c2cc3c(cc2F)c(=O)c(C(=O)O)cn3C2CC2)CC1)Nc1ccccc1
[3]
  inhibition: inactive
[4]
  inhibition: Active

## CC(=O)O[C@@H]1[C@@H](C)O[C@@H](c2ccc3c(c2O)[C@@H](O)[C@]24O[C@@]2(C3=O)[C@@]2(O)C(=O)C=C(C)C[C@@]2(O)C[C@@H]4O)C[C@H]1OC(=O)/C=C/C=C/C=C/C=C/C(=O)Nc1c(O)c2ccc(O)c(Cl)c2oc1=O
[5]
  inhibition: inactive

## CCOC(=O)c1cn(C2CC2)c2cc(N3CCN(C(=O)CCCCCCCCC(=O)Nc4cc5ccccc5oc4=O)CC3)c(F)cc2c1=O
[1]
  inhibition: inactive
[2]
  inhibition: inactive

## O=C(CCCCCCCCC(=O)N1CCN(c2cc3c(cc2F)c(=O)c(C(=O)O)cn3C2CC2)CC1)Nc1cc2ccccc2oc1=O
DNA gyrase [6]
  IC50: 3 µM
[7]
  inhibition: Active

## CCOC(=O)c1cn(C2CC2)c2cc(N3CCN(C(=O)CCCCCCCCC(=O)OC)CC3)c(F)cc2c1=O
[1]
  inhibition: inactive
[2]
  inhibition: inactive

## COC(=O)/C=C/C=C/C=C/C=C/C(=O)Nc1c(O)c2ccc(O)c(Cl)c2oc1=O
DNA gyrase [6]
  IC50: 70 µM

## O=C(O)CCCCCCCCC(=O)N1CCN(c2cc3c(cc2F)c(=O)c(C(=O)O)cn3C2CC2)CC1
[8]
  inhibition: inactive
[9]
  inhibition: Active

## CC(=O)O[C@@H]1[C@@H](C)O[C@@H](c2ccc3c(c2O)[C@@H](O)[C@]24O[C@@]2(C3=O)[C@@]2(O)C(=O)C=C(C)C[C@@]2(O)C[C@@H]4O)C[C@H]1OC(=O)/C=C/C=C/C=C/C=C/C(=O)O
DNA gyrase [6]
  IC50: 50 µM

## Nc1cc2ccccc2oc1=O
[10]
  inhibition: inactive

## CCOC(=O)c1cn(C2CC2)c2cc(N3CCNCC3)c(F)cc2c1=O [CIPROFLOXACIN ETHYL ESTER]
[1]
  inhibition: Active
DNA gyrase [11]
  IC50: 10 µM

## CC(=O)Nc1cc2ccccc2oc1=O
[12]
  inhibition: inactive
